Columns and labels:
[1] = system: IFNE1 mRNA in HL-60 cells; experiment: QRT-PCR of IFNE1 level in HL-60 cells treated with P276-00 or Flavopiridol; format: cell-based, human; conditions: at most time points (3, 6, 12, 24 hours)
Experimental: FIGS. 3A, 3B and 3C show expression of IFNE1 in different cancer cell lines treated with P276-00 and Flavopiridol. The different cell lines were treated with the agent for the indicated times and the level of IFNE1 mRNA were estimated using Real Time RT-PCR. Using the Actin gene for normalization, IFNE1 expression level was plotted as log fold change relative to the signal from the control untreated cells.
The expression of IFNE1 in response to P276-00 or Flavopiridol was also studied in different cancer cell lines such as HCT116, HL-60 (leukemia) and Calu-1. HCT116, Calu-1, H460 and HL-60 cells were obtained from ATCC and were maintained in culture medium with 10% fetal bovine serum. P276-00 and Flavopiridol were synthesized in-house and 10 mM stocks in DMSO were used for the assays. HCT116 (FIG. 3A) cells in culture were treated with P276-00 and Flavopiridol at 200 nM and 250 nM respectively for 6 hours, 12 hours and 24 hours. HL-60 (FIG. 3B) cells were treated with 300 nM of P276-00 and […] of Flavopiridol for 3 hours, 6 hours, 12 hours and 24 hours and Calu-1 (FIG. 3C) cells were treated with 1.2 μM of P276-00 and 450 nM of Flavopiridol for 4 hours, 8 hours, 12 hours, 24 hours and 48 hours. RNA was prepared from the samples and QRT-PCR was performed to estimate level of IFNE1.

[2] = system: IFNE1 gene expression in HCT116 xenografts; experiment: Real Time Quantitative Reverse Transcriptase PCR of IFNE1 in HCT116 xenografts; format: in vivo, SCID mice; conditions: normalized to actin
Experimental: Colon carcinoma (HCT-116) cells were injected into severe combined immunodeficient (SCID) mice intraperitoneally. Xenografts were allowed to grow, typically for 7 days until the tumors reached a size of 5×5 mm before therapeutic agent administration. A total of 56 animals were used for the study. Animals that were treated with two consecutive day administrations of the agent/vehicle were considered as the acute treated group. The acute treated group of animals consisted of 8 sham treated, 10 Flavopiridol (2.5 mg/kg) treated, and P276-00 (35 mg/kg) treated mice. A similar group of animals was treated with either vehicle or agent for 6-7 days consecutively and was considered as the chronic treated group, as discussed below. The differences in the concentrations used reflect the differences in the IC50 values of the two therapeutic agents.
At the end of the acute/chronic treatments, the xenografts were excised from the animals and RNA was prepared using Trizol reagent (Sigma, USA) as per the manufacturer's protocol. Briefly, xenograft tissues were homogenized under liquid nitrogen and resuspended in Trizol ([…] tissue) followed by chloroform extraction. The RNA was precipitated in isopropanol and the pellet was washed using 70% ethanol. RNA samples thus obtained were resuspended in RNase-DNase free water. Quality and quantity of RNA was measured by spectrometry using ND-1000 spectrometer (Nanodrop, Wilmington, Del., USA).
IFNE1 expression in tumor tissues, after exposure to P276-00 or Flavopiridol, was further validated by RTQ-PCR. The primer sequences used for PCR analysis are as follows:
The actin (ACTB) gene is used as control for relative quantification, and the following primer sequences were used for its PCR analysis:
An aliquot of the RNA samples used for the microarray study was also used for Quantitative Real Time Reverse TRasncriptase PCR (QRT-PCR) analysis. […]

[3] = system: IFNE1 mRNA in HCT116 cells; experiment: QRT-PCR of IFNE1 transcript level in HCT116 cells treated with CDK and non-CDK inhibitors; format: cell-based, human; conditions: 6 hours, P276-00 250 nM, Flavopiridol 200 nM, Fascaplysin 500 nM, Roscovitine 20 μM, Olomoucine 180 μM, DRB 50 μM, 5-Fluorouracil 800 nM, Camptothecin 30 nM, Etoposide 3 μM, Vinblastin 1.5 μM, Quercitin 750 nM, Paclitaxel 600 nM, Doxorubicin 100 nM
Experimental: HCT116 cells were treated with various CDK inhibitors [P276-00 (250 nM), Flavopiridol (200 nM), Fascaplysin (500 nM), Roscovitine (20 μM), Olomoucine (180 μM), 5,6-dichloro-1-beta-D-ribofuranosylbenzimidazole (DRB, 50 μM)] and non-CDK inhibitors [5-Fluorouracil (800 nM), Camptothecin (30 nM), Etoposide (3 μM), Vinblastin (1.5 μM), Quercitin (750 nM), Paclitaxel (600 nM), Doxorubicin (100 nM)] for 6 hours. The level of IFNE1 mRNA was estimated using Real Time RT-PCR. Using Actin gene for normalization, relative IFNE1 expression level was plotted as log fold change.
To study if IFNE1 expression is a result of CDK inhibition, HCT116 cells were treated with a variety of CDK and non-CDK inhibitors and IFNE1 transcript level were measured using quantitative QRT-PCR. HCT116 cells were chosen for this assay because IFNE1 level seems to be most regulated in this cell line. The cells were treated with a variety of CDK inhibitors [P276-00 (250 nM), Flavopiridol (200 nM), Fascaplysin (500 nM), Roscovitine (20 μM), Olomoucine (180 μM), 5,6-dichloro-1-beta-D-ribofuranosylbenzimidazole (DRB) (50 μM)] and non-CDK inhibitors [5-Fluorouracil (800 nM), Camptothecin (30 nM), Etoposide (3 μM), Vinblastin (1.5 μM), Quercitin (750 nM), Paclitaxel (600 nM), Doxorubicin (100 nM)] for 6 hours and the IFNE1 transcript level were estimated. All inhibitors were purchased from Sigma and used at IC50 values described in literature.

SMILES	IFNE1 level relative to control untreated cells [1]	xenografts with IFNE1 up-regulation by QRT-PCR ([2]; acute or chronic not distinguished)	change of IFNE1 mRNA level [3]	xenografts with upregulated IFNE1 level by QRT-PCR ([2]; acute treatment)	xenografts with upregulated IFNE1 level by QRT-PCR ([2]; chronic treatment)
CN1CC[C@H](c2c(O)cc(O)c3c(=O)cc(-c4ccccc4Cl)oc23)[C@H](O)C1 [Flavopiridol]	significant increase	most of the xenografts tested	upregulation		
CN1CC[C@@H](c2c(O)cc(O)c3c(=O)cc(-c4ccccc4Cl)oc23)[C@@H]1CO.Cl [Compound P276-00, (+)-trans-2-(2-Chloro-phenyl)-5,7-dihydroxy-8-(2-hydroxymethyl-1-methyl-pyrrolidin-3-yl)-chromen-4-one hydrochloride]	significant increase		upregulation	3 of the 6	most of the xenografts tested

From patent US20110151469A1, “INTERFERON EPSILON (IFNE1) AS A MARKER FOR TARGETED CANCER THERAPY” (PIRAMAL LIFE SCIENCES LIMITED, priority 2008, published 2011)
